In patent publication US20160340327A1, “PROCESS FOR PREPARING AMORPHOUS CABAZITAXEL” (SHILPA MEDICARE LIMITED, priority 2012, published 2016):

What was measured:
[1] = Storage stability of the solid form; type: physicochemical; conditions: storage for longer time; no conditions or data printed
[2] = description from the drug label; cited from earlier work

## CO[C@H]1C(=O)[C@@]2(C)C([C@H](OC(=O)c3ccccc3)[C@]3(O)C[C@H](OC(=O)[C@H](O)[C@H](NC(=O)OC(C)(C)C)c4ccccc4)C(C)=C1C3(C)C)[C@]1(OC(C)=O)CO[C@@H]1C[C@@H]2OC (some centres unmarked)
[1]
  stability on handling and storage (morphology and physicochemical characteristics): quite stable

## CO[C@H]1C(=O)[C@]2(C)[C@@H](OC)C[C@H]3OC[C@@]3(OC(C)=O)[C@H]2[C@H](OC(=O)c2ccccc2)[C@]2(O)C[C@H](OC(=O)[C@H](O)[C@@H](NC(=O)OC(C)(C)C)c3ccccc3)C(C)=C1C2(C)C [Cabazitaxel, (2α,5β,7β,10β,13α)-4-acetoxy-13-({(2R,3S)-3[(tert-butoxycarbonyl)amino]-2-hydroxy-3-phenylpropanoyl}oxy)-1-hydroxy-7,10-dimethoxy-9-oxo-5,20-epoxytax-11-en-2-yl benzoate]
[2]
  solubility in water: practically insoluble in water
